“And” between values parts separate entries of the source, which are not always exact repeats. Identical values can stand only once. Like-named read-outs stand apart in the source and are kept apart here.
How the values were obtained:
TMV CP discs [1] = target: T1, TMV CP discs (Tobacco mosaic virus, UniProt P69687); type: binding; details: for Kd: 20°C
T1 construct: 6×His (N, cleaved yes); made in house; host or cells: Escherichia coli BL21 (DE3)-plysS, pET28a
From the text: We next determined the affinity between CP and NNM using two other independent methods, fluorescence spectrum and ITC.

TMV RNA = assay: ITC binding of NNM to TMV RNA; design: species or system Tobacco mosaic virus; details: 20°C
[2] = target: recombinant TMV CP four-layer aggregate discs (Tobacco mosaic virus, UniProt P69687); assay: Disassembly of recombinant TMV CP discs by SEC and TEM
TMV CP discs [3] = target: T1, TMV CP discs; assay: biochemical; type: binding
TMV = assay: Curative activity against TMV, half leaf; type: in vivo, Tobacco mosaic virus; details: for Curative activity against TMV: half leaf
TMV particles = assay: MST binding of NNM to TMV particles; design: species or system Tobacco mosaic virus
TMV CP monomer = TMV CP monomer (Tobacco mosaic virus, UniProt P69687); assay: biochemical; details: Kd to CP monomer
mutant TMV CP monomer = target: T2, mutant TMV CP monomer (Tobacco mosaic virus, UniProt P69687, R72G/S16G/S50G/Y73G); assay: biochemical; type: binding; details: Kd to mutant CP monomer, MST, 20°C
T2 construct: 6×His; made in house

[4] = target: wt CP four-layer aggregate discs (Tobacco mosaic virus, UniProt P69687); assay: Disassembly of wt CP discs (isolated from TMV particles) by SEC
Mutant CP Discs = target: T3, Mutant CP Discs (Tobacco mosaic virus, UniProt P69687, R72G/S16G/S50G/Y73G); assay: biochemical; type: binding; details: MST, 20°C
T3 construct: 6×His; made in house

TMV CP replication = assay: Leaf disc method with western blot of TMV CP
mutated CP discs = mutated CP discs (Tobacco mosaic virus, UniProt P69687, R72G/S16G/S50G/Y73G); assay: Disassembly of mutated CP discs by SEC and TEM; type: biochemical; details: 1:20 (CP discs:NNM) ratio
TMV CP mutant [5] = target: T4, TMV CP mutant (Tobacco mosaic virus, UniProt P69687, R72G/S16G/S50G/Y73G); type: binding; details: ITC, one-set-of-sites model; 5 mM compounds and 0.5 mM TMV CP
T4 construct: 6×His; made in house

TMV CP mutant [6] = target: T4, TMV CP mutant; type: binding; details: fluorescence spectrum; 5 mM compounds and 0.5 mM TMV CP; read-out: Kd mutant (Fluo.)

TMV CP monomer, sequence (P69687 whole entry): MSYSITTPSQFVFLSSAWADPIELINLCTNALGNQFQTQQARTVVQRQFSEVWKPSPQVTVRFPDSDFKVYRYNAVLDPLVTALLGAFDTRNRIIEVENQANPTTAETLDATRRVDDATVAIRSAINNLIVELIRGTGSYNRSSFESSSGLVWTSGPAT
T1 sequence (P69687 whole entry): as above
recombinant TMV CP four-layer aggregate discs, sequence (P69687 whole entry): as above
T3 sequence (P69687 whole entry S16G/S50G/R72G/Y73G): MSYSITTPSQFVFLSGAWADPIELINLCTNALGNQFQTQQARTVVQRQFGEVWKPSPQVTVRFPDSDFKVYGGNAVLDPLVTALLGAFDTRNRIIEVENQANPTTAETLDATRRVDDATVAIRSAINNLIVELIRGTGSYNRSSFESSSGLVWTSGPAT
wt CP four-layer aggregate discs, sequence (P69687 whole entry): as the sequence (P69687 whole entry) above
T2 sequence (P69687 whole entry S16G/S50G/R72G/Y73G): as the sequence (P69687 whole entry S16G/S50G/R72G/Y73G) above
T4 sequence (P69687 whole entry S16G/S50G/R72G/Y73G): as above
mutated CP discs, sequence (P69687 whole entry R72G/S16G/S50G/Y73G, looked up): as the sequence (P69687 whole entry S16G/S50G/R72G/Y73G) above

Molecule: CNCC(=O)N[C@@H](CO)C(=O)N[C@H]1[C@H](O)[C@@H](O)[C@H](n2ccc(N)nc2=O)O[C@@H]1C(N)=O [NNM, Ningnanmycin]
- K (binding constant) to TMV CP discs (TMV CP discs [1]): 534000 ± 27500 M⁻¹
- number of NNM molecules interacting with one CP disc (TMV CP discs [1]): 39 to 41 and 39–41
- ΔG (TMV CP discs [1]): −6.0
- ΔH (TMV CP discs [1]): 17.2 kcal/mol
- Kd (TMV RNA): 16.5 µM
- disassembly of discs into monomeric proteins [2]: completely disassembled into monomeric proteins
- portion of the discs disassembled into monomeric proteins [2]: 60%
- visibility of four-layer aggregate discs by TEM [2]: invisible
- Kd (TMV CP discs [3]; Kd to CP discs): 1.1 to 3.96 µM
- Kd (TMV CP discs [3]; Kd to TMV CP discs): 1.1 µM and 1.29 µM and 3.96 µM and ~1.1 µM
- Curative activity against TMV (TMV; 100 μg/mL): 29.8%
- Curative activity against TMV (TMV; 500 μg/mL): 60.0%
- Kd (TMV particles; 20°C): 25.8 µM
- Kd (TMV particles; 25°C): 31 µM
- Kd (TMV particles; 30°C): 52.3 µM
- Kd (TMV particles; from 20 to 30°C): 25.8 to 52.3 µM
- Kd (TMV CP monomer): 18.6 µM and ~18.6 µM
- Kd (mutant TMV CP monomer): 212 µM and ~212 µM
- disassembly of wt CP four-layer aggregate discs [4]: completely disassembled into monomeric proteins
- Kd (Mutant CP Discs; Kd to mutant CP discs): 43.5 µM and ~43.5 µM
- bands of the CP in western blot (TMV CP replication; 0.5 mg/mL NNM for 24 h): weak
- bands of the CP in western blot (TMV CP replication; 0.5 mg/mL NNM, after 72 h): not visible
- bands of CP in western blot (TMV CP replication; 500 μg/mL NNM, time not stated): weak
- mutated protein discs disassembled into protein monomers (mutated CP discs): approximately 35%

Molecule: Cytosinpeptidemycin
- Kd (TMV CP discs [1]; ITC, one-set-of-sites model): 5.41 µM
- Kd (TMV CP discs [1]; fluorescence spectrum, read-out: Kd to TMV CP discs (Fluo.)): 23.2 µM
- Kd (TMV CP discs [3]; MST, 20°C, read-out: Kd to TMV CP discs): 4.84 µM
- Curative activity against TMV (TMV; 100 μg/mL): 11.9%
- Curative activity against TMV (TMV; 500 μg/mL): 48.7%
- anti-TMV activity in words (TMV; 500 μg/mL, vivo experiment): significant anti-TMV activities
- Kd (TMV CP mutant [5]): 33 µM
- Kd (TMV CP mutant [6]): 250 µM
- Kd to mutant CP discs (Mutant CP Discs): No binding
- Kd to mutant CP discs (Mutant CP Discs; listed as cytosinpeptidemycin): no binding
